For one data set, the system named is Phoma betae. To be noted: cited from earlier work.
The conditions of data set [1]: subcutaneous, intraperitoneal or intratumoural routes; previous studies; cited from earlier work.
In data set [2] the test system is Fusarium oxysporum f. sp. vasinfectum (Fov). To be noted: cited from earlier work.
Data set [3] concerns normal human umbilical vein endothelial cells (HUVEC). Nature of the data set: MTT cell viability assay, HUVEC. The data set is classed as cell-based. To be noted: 48 h. Here is the method: Tumour cells were seeded in quadruplicate into wells of a flat-bottomed 96-well microtitre plate (50 μL) at various densities starting at 2×10^6 cells/mL. Four wells containing complete culture medium alone were included in each assay as a background control. The microtitre plate was incubated overnight at 37° C. under a humidified atmosphere containing 5% CO2/95% air, prior to the addition of complete culture medium (100 μL) to each well and further incubated at 37° C. for 48 h. Optimum cell densities (30-50% confluency) for cell viability assays were determined for each cell line by light microscopy.
Tumour cells were seeded in a 96-well microtitre plate (50 μL/well) at an optimum density determined in the cell optimisation assay as above. Background control wells (n=8) containing the same volume of complete culture medium were included in the assay. The microtitre plate was incubated overnight at 37° C., prior to the addition of proteins at various concentrations and the plate was incubated for a further 48 h. […]
The effect of NoD173 on the viability of a tumour cell line and a normal human cell isolate was determined using a 3-(4,5-dimethyl-2-thiazolyl)-2,5-diphenyl-2H-tetrazolium bromide (MTT) in vitro cell culture viability assay. […]

In another data set the test system is Aspergillus nidulans. To be noted: cited from earlier work.
In the next data set the test system is Leptosphaeria maculans. To be noted: cited from earlier work.
The next data set deals with Thielaviopsis basicola. To be noted: cited from earlier work.
The next data set relates to Verticillium dahliae. To be noted: cited from earlier work.

Where two headings read alike, the source gives them in different places.

As for “Rs-AFP2: antifungal protein (plant defensin) isolated from radish seeds, 51 amino acids (QKLCQRPSGTWSGVCGNNNACKNQCIRLEKARHGSCNYVFPAHKCICYFPC; UniProt P30230 30-80, looked up)”, the “Concentration inhibiting growth of Phoma betae” value in the data set with Phoma betae is 1 µg/mL.

By IC50 is commonly meant the concentration needed to halve the response being measured. Lower therefore signals higher potency. Take “NaD1: plant defensin isolated from floral tissue of Nicotiana alata; model class II defensin (RECKTESNTFPGICITKPPCRKACISEKFTDGHCSKILRRCLCTKPC; UniProt Q8GTM0 26-72, looked up)”: in data set [1], the “Dose at which toxicity was shown” value is “above 1 mg/kg body weight”. The “Growth inhibition of Fov” value in data set [2] (1 μM) is reported as 50%; in data set [2] (5 μM) it was “more than 80%”. In data set [3], this substance had an IC50 of 15 µM. In addition, the “Growth inhibition of A. nidulans” value in the data set with Aspergillus nidulans (1 μM) is given as “approximately 65%”; with Aspergillus nidulans (5 μM), “more than 80%”. Besides, the “Growth inhibition of L. maculans” value is 50% with Leptosphaeria maculans (1 μM) and “more than 80%” in the data set with Leptosphaeria maculans (5 μM). Also, the “Growth inhibition of T. basicola” value in the data set with Thielaviopsis basicola (1 μM) is listed as “approximately 65%”; in the data set on Thielaviopsis basicola (5 μM), “more than 80%”. For the same substance, the “Growth inhibition of V. dahliae” value in the data set with Verticillium dahliae (1 μM) was “approximately 65%”; in the data set with Verticillium dahliae (5 μM), “more than 80%”.

These data come from patent US9540423B2, “Plant defensins and use in the treatment of proliferative diseases” (Balmoral Australia Pty Ltd, priority 2011, dated 2017).
